Assay results taken from DBAASP.
Values after ≈ are worked out from the molar mass of the structure shown. One block for each compound: values may come before it.

Tests used:
Experiment in all cases: ≥ marks a high value that may be exact or a test limit, other limits are often not marked, values filed in µg/mL are converted to µM
[1] = system: Acinetobacter baumannii KCTC 2508
[2] = system: Klebsiella pneumoniae KCTC 2208
[3] = system: Pseudomonas aeruginosa ATCC 27853
[4] = system: Bacillus subtilis CGMCC 1.3376
[5] = system: Escherichia coli CGMCC 1.8732
[6] = system: Klebsiella pneumoniae CGMCC 1.1736
[7] = system: Pseudomonas aeruginosa CGMCC 1.2421
[8] = system: Staphylococcus aureus CGMCC 1.8721
[9] = system: Staphylococcus epidermidis CGMCC 1.4260
[10] = system: Bacillus cereus ATCC 14579
[11] = system: Bacillus subtilis ATCC 23857
[12] = system: Candida albicans ATCC 90028
[13] = system: Cryptococcus neoformans ATCC 28957
[14] = system: Escherichia coli ATCC 25922
[15] = system: Fusarium oxysporum f.sp. vasinfectum
Fusarium oxysporum = system: Fusarium oxysporum
Fusarium solani = system: Fusarium solani
[16] = system: Pectobacterium carotovorum
[17] = system: Pseudomonas syringae pv. tabaci
Ramulariopsis gossypii = system: Ramulariopsis gossypii
Rhizoctonia solani = system: Rhizoctonia solani
[18] = system: Staphylococcus aureus ATCC 25923
Trichoderma asperellum = system: Trichoderma asperellum
[19] = system: Xanthomonas campestris pv. citri
[20] = system: Candida albicans NCYC 1467
[21] = system: Enterococcus faecalis NCTC 12697
[22] = system: Escherichia coli NCTC 10418
[23] = system: Klebsiella pneumoniae ATCC 43816
[24] = system: Staphylococcus aureus NCTC 10788
[25] = system: Staphylococcus aureus NCTC 12493
Bacillus subtilis DELTA = system: Bacillus subtilis DELTA
Candida parapsilosis = system: Candida parapsilosis
[26] = system: Escherichia coli DH5alpha
[27] = system: Pseudomonas aeruginosa PAO1
[28] = system: Zymomonas mobilis ATCC 10988

Structure (SMILES): CC[C@H](C)[C@H](N)C(=O)N[C@@H](C)C(=O)N[C@@H](CCCN=C(N)N)C(=O)N[C@@H](CCCN=C(N)N)C(=O)N[C@@H](C)C(=O)N[C@@H](CC(C)C)C(=O)N[C@@H](CCCCN)C(=O)N[C@@H](CCCCN)C(=O)N[C@@H](C)C(=O)N[C@@H](CCCCN)C(=O)N[C@@H](CCCN=C(N)N)C(=O)N[C@@H](C)C(=O)N[C@@H](C)C(=O)N[C@@H](Cc1cnc[nH]1)C(=O)N[C@@H](CCCCN)C(=O)N[C@H](C(=O)N1CCC[C@H]1C(=O)N[C@@H](CCC(N)=O)C(=O)N[C@@H](CS)C(=O)N[C@@H](CCCCN)C(=O)N[C@@H](CCCCN)C(=O)N[C@@H](Cc1ccccc1)C(=O)NCC(=O)N[C@@H](CCCN=C(N)N)C(=O)N[C@@H](CCCN=C(N)N)C(N)=O)[C@@H](C)CC [IARRALKKAKRAAHKIPQCKKFGRR]
MIC [1]: ≥ 32 µM
MIC [2]: 8 µM (≈ 23.5 µg/mL)
MIC [3]: 2 µM (≈ 5.86 µg/mL)

Structure (SMILES): CC[C@H](C)[C@H](N)C(=O)N[C@@H](C)C(=O)N[C@@H](CCCN=C(N)N)C(=O)N[C@@H](CCCN=C(N)N)C(=O)N[C@@H](C)C(=O)N[C@@H](CC(C)C)C(=O)N[C@@H](CCCCN)C(=O)N[C@@H](CCCCN)C(=O)N[C@@H](C)C(=O)N[C@@H](CCCCN)C(=O)N[C@@H](CCCN=C(N)N)C(=O)N[C@@H](C)C(=O)N[C@@H](C)C(=O)N[C@@H](Cc1cnc[nH]1)C(=O)N[C@@H](CCCCN)C(=O)N[C@H](C(=O)N1CCC[C@H]1C(=O)N[C@@H](C)C(=O)N[C@@H](C)C(=O)N[C@@H](CCCCN)C(=O)N[C@@H](CCCCN)C(=O)N[C@@H](Cc1ccccc1)C(=O)N[C@@H](C)C(=O)N[C@@H](CCCN=C(N)N)C(=O)N[C@@H](CCCN=C(N)N)C(N)=O)[C@@H](C)CC [IARRALKKAKRAAHKIPAAKKFARR]
MIC [1]: 4 µM (≈ 11.4 µg/mL)
MIC [2]: 2 µM (≈ 5.71 µg/mL)
MIC [3]: 8 µM (≈ 22.9 µg/mL)

Structure (SMILES): CC(C)C[C@H](NC(=O)[C@H](C)N)C(=O)N[C@@H](Cc1c[nH]c2ccccc12)C(=O)N[C@@H](CCCCN)C(=O)N[C@@H](CO)C(=O)N[C@@H](CC(C)C)C(=O)N[C@@H](CC(C)C)C(=O)N[C@@H](CCCCN)C(=O)N[C@@H](CC(N)=O)C(=O)N[C@H](C(=O)NCC(=O)N[C@@H](CCCCN)C(=O)N[C@@H](C)C(N)=O)C(C)C [ALWKSLLKNVGKA]
MIC [20]: ≥ 32 µM
MIC [21]: ≥ 256 µM
MIC [22]: ≥ 64 µM
MIC [23]: ≥ 128 µM
MIC [3]: 128 µM (≈ 183 µg/mL)
MIC [24]: ≥ 64 µM
MIC [25]: ≥ 128 µM

Structure (SMILES): CC[C@H](C)[C@H](NC(=O)[C@H](CCCCN)NC(=O)[C@H](CCCCN)NC(=O)[C@H](CC(C)C)NC(=O)[C@H](CC(C)C)NC(=O)CN)C(=O)N[C@@H](CCCCN)C(=O)N[C@@H](CCCN=C(N)N)C(=O)N[C@@H](CC(C)C)C(=O)N[C@@H](CC(C)C)C(N)=O [GLLKKIKRLL]
MIC (Bacillus subtilis DELTA): ≥ 169 µM
MIC (Candida parapsilosis): 25.4 µM (≈ 30 µg/mL)
MIC [26]: ≥ 169 µM
MIC [27]: 5.92 µM (≈ 6.99 µg/mL)
MIC [28]: ≥ 33.9 µM

Now from value to compound:

MIC [4]: 3.13 µM (≈ 7.75 µg/mL)
MIC [5]: 12.5 µM (≈ 31 µg/mL)
MIC [6]: 12.5 µM (≈ 31 µg/mL)
MIC [7]: 12.5 µM (≈ 31 µg/mL)
MIC [8]: 3.13 µM (≈ 7.75 µg/mL)
MIC [9]: 3.13 µM (≈ 7.75 µg/mL)
Structure (SMILES): CC[C@H](C)[C@H](NC(=O)[C@H](C)N)C(=O)NCC(=O)N[C@@H](CO)C(=O)N[C@H](C(=O)N[C@@H](CC(C)C)C(=O)NCC(=O)N[C@@H](CCCN=C(N)N)C(=O)N[C@@H](CC(C)C)C(=O)N[C@@H](C)C(=O)N[C@@H](CCCCN)C(=O)NCC(=O)N[C@@H](CC(C)C)C(=O)N1CCC[C@H]1C(=O)N[C@H](C(=O)N[C@@H](CC(C)C)C(=O)N[C@H](C(=O)N[C@@H](CO)C(=O)N[C@@H](Cc1c[nH]c2ccccc12)C(=O)N[C@H](C(=O)N[C@@H](CCCCN)C(=O)N[C@@H](CC(N)=O)C(=O)N[C@@H](CCCN=C(N)N)C(N)=O)[C@@H](C)CC)[C@@H](C)CC)[C@@H](C)O)[C@@H](C)CC [AIGSILGRLAKGLPTLISWIKNR]

MIC [10]: 13.3 µM (≈ 32.8 µg/mL)
MIC [11]: 4 µM (≈ 9.86 µg/mL)
MIC [12]: 1 µM (≈ 2.46 µg/mL)
MIC [13]: 1 µM (≈ 2.46 µg/mL)
MIC [14]: 10.7 µM (≈ 26.3 µg/mL)
MIC [15]: 0.83 µM (≈ 2.05 µg/mL)
MIC (Fusarium oxysporum): 2 µM (≈ 4.93 µg/mL)
MIC (Fusarium solani): 1 µM (≈ 2.46 µg/mL)
MIC [16]: 16 µM (≈ 39.4 µg/mL)
MIC [3]: 16 µM (≈ 39.4 µg/mL)
MIC [17]: 4 µM (≈ 9.86 µg/mL)
MIC (Ramulariopsis gossypii): 0.83 µM (≈ 2.05 µg/mL)
MIC (Rhizoctonia solani): 1 µM (≈ 2.46 µg/mL)
MIC [18]: 8 µM (≈ 19.7 µg/mL)
MIC (Trichoderma asperellum): 1 µM (≈ 2.46 µg/mL)
MIC [19]: 16 µM (≈ 39.4 µg/mL)
Structure (SMILES): CC[C@H](C)[C@H](NC(=O)[C@H](CCCCN)NC(=O)CN)C(=O)N[C@@H](CC(C)C)C(=O)N[C@@H](CCCCN)C(=O)N[C@@H](Cc1ccc(O)cc1)C(=O)N[C@@H](CC(C)C)C(=O)N[C@@H](CC(C)C)C(=O)N[C@@H](Cc1ccc(O)cc1)C(=O)N[C@@H](CC(C)C)C(=O)N[C@@H](CC(C)C)C(=O)N[C@@H](CCCN=C(N)N)C(=O)N[C@@H](CCCCN)C(=O)N[C@@H](Cc1ccc(O)cc1)C(=O)N[C@@H](C)C(=O)N[C@@H](CC(N)=O)C(=O)N[C@@H](CC(C)C)C(=O)N[C@H](C(=O)N[C@H](C(=O)N[C@@H](CCCN=C(N)N)C(N)=O)[C@@H](C)CC)[C@@H](C)CC [GKILKYLLYLLRKYANLIIR]

MIC [4]: 6.25 µM (≈ 15.6 µg/mL)
MIC [5]: 25 µM (≈ 62.3 µg/mL)
MIC [6]: 25 µM (≈ 62.3 µg/mL)
MIC [7]: 12.5 µM (≈ 31.2 µg/mL)
MIC [8]: ≥ 100 µM
MIC [9]: 6.25 µM (≈ 15.6 µg/mL)
Structure (SMILES): CC[C@H](C)[C@H](NC(=O)[C@H](CO)NC(=O)CNC(=O)[C@@H](NC(=O)[C@@H](N)CCCN=C(N)N)[C@@H](C)CC)C(=O)N[C@@H](CC(C)C)C(=O)NCC(=O)N[C@@H](C)C(=O)N[C@@H](CC(C)C)C(=O)N[C@@H](C)C(=O)N[C@@H](CCCCN)C(=O)NCC(=O)N[C@@H](CC(C)C)C(=O)N1CCC[C@H]1C(=O)N[C@H](C(=O)N[C@@H](CC(C)C)C(=O)N[C@@H](CCCCN)C(=O)N[C@@H](CO)C(=O)N[C@@H](Cc1c[nH]c2ccccc12)C(=O)N[C@H](C(=O)N[C@@H](CCCCN)C(=O)N[C@@H](CC(N)=O)C(=O)N[C@@H](CCCN=C(N)N)C(N)=O)[C@@H](C)CC)[C@@H](C)O [RIGSILGALAKGLPTLKSWIKNR]

MIC [10]: 1 µM (≈ 1.93 µg/mL)
MIC [11]: 1 µM (≈ 1.93 µg/mL)
MIC [12]: 1 µM (≈ 1.93 µg/mL)
MIC [13]: 1 µM (≈ 1.93 µg/mL)
MIC [14]: 0.5 µM (≈ 0.966 µg/mL)
MIC [15]: 0.5 µM (≈ 0.966 µg/mL)
MIC (Fusarium oxysporum): 0.5 µM (≈ 0.966 µg/mL)
MIC (Fusarium solani): 0.5 µM (≈ 0.966 µg/mL)
MIC [16]: 0.5 µM (≈ 0.966 µg/mL)
MIC [3]: 3.33 µM (≈ 6.43 µg/mL)
MIC [17]: 1 µM (≈ 1.93 µg/mL)
MIC (Ramulariopsis gossypii): 0.5 µM (≈ 0.966 µg/mL)
MIC (Rhizoctonia solani): 1 µM (≈ 1.93 µg/mL)
MIC [18]: 0.83 µM (≈ 1.6 µg/mL)
MIC (Trichoderma asperellum): 1 µM (≈ 1.93 µg/mL)
MIC [19]: 1 µM (≈ 1.93 µg/mL)
Structure (SMILES): CC[C@H](C)[C@H](NC(=O)[C@@H](NC(=O)[C@H](Cc1c[nH]c2ccccc12)NC(=O)[C@H](CCCCN)NC(=O)[C@H](Cc1ccccc1)NC(=O)[C@@H](NC(=O)[C@H](CCCCN)NC(=O)[C@@H](NC(=O)[C@H](CC(C)C)NC(=O)[C@H](CCCCN)NC(=O)[C@H](CCCN=C(N)N)NC(=O)CNC(=O)[C@H](CC(C)C)NC(=O)[C@H](CCCCN)NC(=O)[C@H](Cc1ccccc1)NC(=O)CN)C(C)C)C(C)C)[C@@H](C)CC)C(N)=O [GFKLGRKLVKVFKWII]
